In paper PMC8037097, “Highly Oxygenated Triterpenoids and Diterpenoids from Fructus Rubi (Rubus chingii Hu) and Their NF-kappa B Inhibitory Effects” (Molecules, 2021):
≈ marks a conversion by molar mass, not a printed value. Where two headings read alike, the source gives them in different places.

Key:
[1] = system: C. albicans SC5314 sensitive strain; experiment: Anti-fungal susceptibility assay (CLSI M27-A3), sensitive strain; assay type: cell-based; conditions: Candida albicans, 48 h incubation at 37 °C
Protocol: An anti-fungal assay was carried out on the basis of the Clinical and Laboratory Standards Institute (CLSI) method M27-A3 [45, 48]. A single colony of Candida albicans (the resistant strain 901 or the sensitive strain 5314) was chosen from Sabouraud’s agar and then inoculated in yeast extract peptone dextrose medium (YEPD) for activation by shake bottled cultivation (200 rpm, 37 °C). After 16 h, fungi in the late-exponential growth phase were obtained, followed by being adjusted to 1 × 10^3–5 × 10^3 CFU/mL with RPMI 1640 medium. The density of the fungi in 96-well plates was 10^3 CFU/mL, while the final concentrations of the test compounds ranged from 64 to 0.125 μg/mL in triplicate. The assay volume in each well was 100 μL with MIC80 determined following 48 h incubation at 37 °C. Optical density was measured with a microplate reader (Multiskan MK3; Labsystems, Nantaa, Finland) at 630 nm. MIC80 was determined as the lowest concentration of the drugs that inhibited growth by 80% compared with the […]. Fluconazole was used as the positive control.

NF-κB = NF-κB inhibitory assay (luciferase, HEK293 with stable NF-κB expression, TNF-α stimulation); assay type: cell-based; conditions: read-out: NF-κB (IC50)
Protocol: HEK293 with a stable NF-κB expression cell line was used for the luciferase assay. Cells were maintained at 37 °C and 5% CO2 atmosphere in Dulbecco’s modified Eagle’s medium with 100 U/mL benzylpenicillin 100 μg/mL streptomycin, 2 mM glutamine, and 10% fetal bovine serum. Before seeding in 96-well plates, the cells were stained for 1 h in serum-free medium supplemented with […] cell Tracker Green CMFDA. Cells were seeded into 96-well plates and incubated for 24 h, and then treated with different concentrations of the tested compounds followed by stimulation with 20 ng/mL TNF-α. The luciferase substrate was added to each well after incubation for 6 h, and then the released luciferin signal was detected using an EnVision microplate reader. The IC50 value was derived from a nonlinear regression model (curve-fit), based on a sigmoidal dose response curve (variable slope) and computed using Graphpad Prism 5 (Graphpad Software). Bortezomib (PS-341, CAS No. 179324-69-7) was used as the positive control.

Compound | MIC80 [1] [µg/mL] | IC50 (NF-κB; Homo sapiens, HEK293, 6 h) [nM] | further results
CC1(C)CC[C@]2(C(=O)O)CC[C@]3(C)C(=CC[C@@H]4[C@@]5(C)C[C@@H](O)[C@@H](O)[C@@](C)(CO)[C@@H]5CC[C@]43C)[C@@H]2C1 [Compound 12] | 32 (≈ 65.5 µM) |  | 
CC(C)(O)/C=C/C(=O)[C@](C)(O)[C@H]1[C@H](O)C[C@@]2(C)[C@@H]3CC=C4[C@@H](C[C@H](O)C(=O)C4(C)C)[C@]3(C)C(=O)C[C@]12C [Compound 16, cucurbitacin D] |  | 610 ± 120 | 
CC(C)(O)/C=C/C(=O)[C@](C)(O)[C@H]1[C@H](O)C[C@@]2(C)[C@@H]3CC=C4[C@@H](CC(=O)[C@@H](O)C4(C)C)[C@]3(C)C(=O)C[C@]12C [Compound 17, 3α,16α,20(R),25-tetrahydroxy-cucurbita-5,23-dien-2,11,22-trione] |  | 1600 ± 320 | 
OC(Cn1cncn1)(Cn1cncn1)c1ccc(F)cc1F [Fluconazole, reference compound] | 0.125 (≈ 0.408 µM) |  | 
CC(C)C[C@H](NC(=O)[C@H](Cc1ccccc1)NC(=O)c1cnccn1)B(O)O [PS-341, Bortezomib, reference compound] |  |  | IC50 (NF-κB; Homo sapiens, HEK293 NF-κB luciferase, 20 ng/mL TNF-α, 6 h, mean SEM of triplicated experiments): 440 ± 80 nM
cucurbitacin B [Compound 15] |  |  | IC50 (NF-κB; HEK293 NF-κB luciferase, 20 ng/mL TNF-α, 6 h, mean SEM of triplicated experiments): 80 ± 30 nM
